# Results taken from patent US20250109127A1, “METHODS OF USE OF PHENOXYPROPYLAMINE COMPOUNDS TO TREAT DEPRESSION” (Minerva Neurosciences, Inc., priority 2013, published 2025).
# “And” between values parts separate entries of the source, which are not always exact repeats. Identical values can stand only once.
# Tested on: HVA release in the rat prefrontal cortex
# Test: Microdialysis: HVA release in prefrontal cortex after I.P. administration
# Format: in vivo
# Settings: Citalopram 10 mg/kg I.P.
# Procedure: The aim of the study was to evaluate, using microdialysis, the effects of an intraperitoneal (I.P.) administration in rats of three different doses of SON-117 on dopamine and its metabolites, serotonin and its metabolite (5-HIAA), and norepinephrine levels in prefrontal cortex.
# Thirty-two adult male Wistar rats were used for the whole study (4 groups of eight animals planned for the study, Table 1).
# Surgery was performed on rats weighing about 300 g at the beginning of the experiments. Rats were anaesthetized with Ketamine (50 mg/kg) & Xylazine (15 mg/kg) by intramuscular administration. The animals were placed in a stereotaxic apparatus in the flat-skull position at a constant setting of −3.3 mm between ear bars and the incisor bar. The animals were treated with a local anesthesic (xylocaine 1%, Astra Zeneca) and an analgesic (Temgesic, from Schering Plough, 0.05 mg/kg, s.c.). A rostrocaudal midline incision was made with a lancet to expose the dorsal skull surface. The “stereotaxic zero” was defined by the Bregma in accordance with Paxinos and Watson's atlas (1986). A hole was drilled in the skull with a drill and the meninges were pierced with a sterile needle to implant a CMA12 guide cannula which later received the dialysis probe.
# Coordinates used for implanting guide cannula in prefrontal cortex from Bregma were anteroposterior 3.7 mm, mediolateral 0.8 mm, and dorsoventral −2 mm (top of the probe was at −5 mm). The guide cannula was fixed to the skull with two stainless steel screws (1.88 mm outside diameter) anchored. An application of dental cement was added. A plastic collar allowed each animal to be tethered to a Swivel assembly of the CMA 120 awake animal system. Following surgery, rats were kept in individual cages and allowed to recover for a minimum of 3-5 days before the experimentation. The rats were handled and put in plastic bowl for 10 min at least every day to habituate the animals to their new environment for the dialysis. An I.P. administration with saline was also performed every day.
# Dialysis probes (CMA12/3 mm, membrane, 20 kD cut-off, Carnegie Medicine, Stockholm, Sweden), were carefully washed before inserting into the guide cannula. The wash was performed with the artificial cerebrospinal fluid (aCSF) medium (NaCl 147 mM, KCl 2.7 mM, CaCl2 1.2 mM, MgCl2 0.85 mM) at room temperature. The dialysis system was then equilibrated at 20° C. at a perfusion rate of 1 μl/min with a Carnegie pump (CMA100). All catheters (FEP tubing, internal volume of 1.2 μl/10 cm, and tubing adaptors) used for microdialysis were treated in the same conditions.
# The probes duly prepared were inserted into the guide cannula and the CMA120 Swivel assembly secured to the animal using a plastic collar. Flow through the dialysis probe with aCSF was maintained at a rate of 1 μl/min during the whole experimentation. The first four fractions (corresponding to 2 hours) were discarded to avoid the effects of parenchymal disturbance and to ensure that an approximate steady-state level was reached. Fractions were then collected over a period of 8.5 h during which time the animals remained quiet. The dialysates were automatically collected with an autosampler (microfraction collector CMA 140, Carnegie Medicin) and stored at −80° C. until analysis. […] Perfusion was then maintained for 7 hours with aCSF. The dialysates (30 μl) were collected into 300 μl vials, transferred into dry ice and then kept frozen (−80° C.) until analysis. Frozen samples were shipped to a partner for analysis. At the end of the microdialysis study, a PBS with colored ink was perfused through the probe in order to visualize the dialyzed area.
# Catecholamine assay: Concentrations of dopamine, DOPAC, HVA, 5-HIAA, 5-HT, and norepinephrin were determined for each sample by HPLC coupled with electrochemical detection.
structure (smiles),measurement,setting,value
"CN(C)CCCC1(c2ccc(F)cc2)OCc2cc(C#N)ccc21 (stereo not shown) [Citalopram, citalopram, reference compound]","HVA in dialysate, MEAN",T0-T30 min,102.65 % of respective basal
same,"HVA in dialysate, MEAN",T30-T1 h,105.17 % of respective basal
same,"HVA in dialysate, individual animals",T30-T1 h,110.26 % of respective basal and 73.39 % of respective basal and 105.80 % of respective basal and 135.08 % of respective basal and 125.22 % of respective basal and 95.29 % of respective basal and 76.23 % of respective basal and 120.12 % of respective basal
same,"HVA in dialysate, MEAN",T1 h 30-T2 h,106.38 % of respective basal
same,"HVA in dialysate, individual animals",T1 h 30-T2 h,104.10 % of respective basal and 113.65 % of respective basal and 118.49 % of respective basal and 112.13 % of respective basal and 90.95 % of respective basal and 85.54 % of respective basal and 119.96 % of respective basal
same,"HVA in dialysate, MEAN",T1 h-T1 h 30,112.92 % of respective basal
same,"HVA in dialysate, individual animals",T1 h-T1 h 30,120.80 % of respective basal and 108.77 % of respective basal and 119.99 % of respective basal and 133.87 % of respective basal and 130.19 % of respective basal and 94.21 % of respective basal and 78.63 % of respective basal and 116.88 % of respective basal
same,"HVA in dialysate, MEAN",T2 h 30-T3 h,99.23 % of respective basal
same,"HVA in dialysate, individual animals",T2 h 30-T3 h,86.24 % of respective basal and 96.34 % of respective basal and 105.81 % of respective basal and 109.56 % of respective basal and 114.62 % of respective basal and 86.75 % of respective basal and 85.57 % of respective basal and 108.98 % of respective basal
same,"HVA in dialysate, MEAN",T2 h-T2 h 30,104.43 % of respective basal
same,"HVA in dialysate, individual animals",T2 h-T2 h 30,119.22 % of respective basal and 102.87 % of respective basal and 120.09 % of respective basal and 114.29 % of respective basal and 113.51 % of respective basal and 80.94 % of respective basal and 78.69 % of respective basal
same,"HVA in dialysate, MEAN",T3 h 30-T4 h,106.01 % of respective basal
same,"HVA in dialysate, individual animals",T3 h 30-T4 h,116.4 % of respective basal and 101.70 % of respective basal and 115.15 % of respective basal and 111.71 % of respective basal and 116.15 % of respective basal and 91.42 % of respective basal and 83.19 % of respective basal and 112.34 % of respective basal
same,"HVA in dialysate, MEAN",T3 h-T3 h 30,99.27 % of respective basal
same,"HVA in dialysate, individual animals",T3 h-T3 h 30,120.94 % of respective basal and 53.98 % of respective basal and 122.37 % of respective basal and 100.07 % of respective basal and 116.40 % of respective basal and 87.92 % of respective basal and 83.63 % of respective basal and 108.86 % of respective basal
same,"HVA in dialysate, MEAN",T4 h 30-T5 h,104.36 % of respective basal
same,"HVA in dialysate, individual animals",T4 h 30-T5 h,122.34 % of respective basal and 105.68 % of respective basal and 105.06 % of respective basal and 88.58 % of respective basal and 115.04 % of respective basal and 93.59 % of respective basal and 99.55 % of respective basal and 105.03 % of respective basal
same,"HVA in dialysate, MEAN",T4 h-T4 h 30,102.95 % of respective basal
same,"HVA in dialysate, individual animals",T4 h-T4 h 30,114.29 % of respective basal and 100.59 % of respective basal and 112.89 % of respective basal and 101.71 % of respective basal and 116.86 % of respective basal and 75.84 % of respective basal and 89.63 % of respective basal and 111.78 % of respective basal
same,"HVA in dialysate, MEAN",T5 h 30-T6 h,101.24 % of respective basal
same,"HVA in dialysate, individual animals",T5 h 30-T6 h,117.67 % of respective basal and 97.79 % of respective basal and 98.75 % of respective basal and 98.06 % of respective basal and 103.48 % of respective basal and 81.28 % of respective basal
same,"HVA in dialysate, MEAN",T5 h-T5 h 30,90.91 % of respective basal
same,"HVA in dialysate, individual animals",T5 h-T5 h 30,56.25 % of respective basal and 103.6 % of respective basal and 88.87 % of respective basal and 96.67 % of respective basal and 94.02 % of respective basal and 92.05 % of respective basal and 104.93 % of respective basal
same,"HVA in dialysate, MEAN",T6 h 30-T7 h,96.98 % of respective basal
same,"HVA in dialysate, individual animals",T6 h 30-T7 h,91.33 % of respective basal and 101.80 % of respective basal and 95.80 % of respective basal and 96.50 % of respective basal and 91.69 % of respective basal and 93.72 % of respective basal and 98.54 % of respective basal
same,"HVA in dialysate, MEAN",T6 h-T6 h 30,98.82 % of respective basal
same,"HVA in dialysate, individual animals",T6 h-T6 h 30,123.42 % of respective basal and 100.15 % of respective basal and 101.33 % of respective basal and 91.37 % of respective basal and 91.61 % of respective basal and 99.80 % of respective basal and 86.50 % of respective basal and 96.35 % of respective basal
same,"HVA in dialysate, MEAN",T-30 min-T0 (pre-dose),100.15 % of respective basal
same,"HVA in dialysate, MEAN",T-1 h 30-T-1 h (pre-dose),103.32 % of respective basal
same,"HVA in dialysate, individual animals",T-1 h 30-T-1 h (pre-dose),98.60 % of respective basal and 95.37 % of respective basal
same,"HVA in dialysate, MEAN",T-1 h-T-30 min (pre-dose),97.36 % of respective basal
